IC50 data for 5 compounds are collected here from ChEMBL document CHEMBL5233236, “p62 as a therapeutic target for tumor” (Eur J Med Chem, 2020).

Experiment [1] relates to MM1.S. The experiment is described as follows: Inhibition of cell growth in human MM1.S cells incubated for 48 hrs by MTT assay. In kind it is functional, cell-based. In general terms: Tetrazolium dyes change colour on reduction, which living cells bring about.
Experiment [2] in a line: Inhibition of full length human GST tagged LC3 (1 to 120 residues)/p62 (unknown origin) interaction expressed in Escherichia coli BL21 Star (DE3) incubated for 2 hrs by SPR based competitive binding assay. In general terms: SPR reads the build-up and loss of mass on a sensor chip optically.
In experiment [3] the test system is MM1.S. The experiment is described as follows: Inhibition of cell growth in human MM1.S cells. The format is functional.

Turning to `OCCNCc1ccc(OCc2ccccc2)c(OCc2ccccc2)c1`, the 50% inhibitory concentration (IC50) (in general, the concentration that inhibits the measured activity by half) in experiment [1] was determined as 6.19 µM.
Compound `O=C(O)CSc1cc(NS(=O)(=O)c2ccc(Br)cc2)c2ccccc2c1O` had an IC50 in experiment [2] of 0.9 µM.
In the case of `OCCNCc1ccc(OCc2ccc(F)cc2)c(OCc2ccc(F)cc2)c1`, the half-inhibitory concentration (IC50) in experiment [1] was found to be 4.6 µM.
In experiment [3], `Fc1ccc(COc2ccc(CNCC3CCCCC3)cc2OCc2ccc(F)cc2F)c(F)c1` had an IC50 of 0.84 µM.
Compound `O=C1CC(=O)c2ccc3c4c(ccc1c24)C(=O)CC3=O` displayed an IC50 in experiment [2] of 2 µM.
